Laboratory results as given in patent publication US4940713A, “Substituted glutamic acids” (Burroughs Wellcome Co., priority 1988, dated 1990).
Like-named read-outs stand apart in the source and are kept apart here.

Columns and labels:
mouse L cells [1] = test: Reversal of Cytotoxic Activity on mouse L cells
Spiroplasma citri = test: Activity Against Spiroplasma citri, Sensitivity Test; format: cell-based; conditions: in words
Method: Frozen broth cultures are diluted to a predetermined titre of 100 color changing units for the test. Organisms are grown in Difco PPLO broth base with added serum, glucose, phenol red, ampicillin, thallium acetate and yeast extract. Incubation is at 32° C. Incubation with varying levels of the test compound in the above medium are performed in well plates and an amount of Spiroplasma citri cells is added that will produce a color change by a fixed time of growth. The lowest concentration of compound that fails to produce a color change or gives a two day delay in color change indicates minimum inhibitory concentration.

Streptococcus faecium = test: Activity against Streptococcus faecium; format: cell-based; conditions: in words
Lactobacillus casei = test: Activity against Lactobacillus casei; format: cell-based; conditions: in words
yellow fever virus = conditions: in words
[2] = test system: MCF-7 breast adenocarcinoma; test: Cytotoxicity Assay, MCF-7 (MTT dye reduction assay); format: cell-based; conditions: 72 hours
Method: Cells and Medium: MCF-7 breast adenocarcinoma, obtained from the American Type Culture Collection (ATCC) is grown in RPMI 1640 medium supplemented with 10 nM calcium leucovorin instead of folic acid as the folate source, 10% dialyzed fetal calf serum, penicillin, streptomycin and sodium pyruvate (110 μg/ml).
Cytotoxicity Assay: Cells are seeded into 96 well plates using a Perkin Elmer Pro/pette. MCF-7 cells are seeded at 15,000 cells per well in 150 μl of medium. Prior to the addition of drugs, cultures were incubated for 24 hours at 37°. Compounds were added at 2× concentration in 150 μl of medium and each concentration was assayed in triplicate. Cultures were incubated for 72 hours in a 37° humidified incubator at 5% CO2. Inhibition of cell growth was measured using the MTT dye reduction assay.
MTT Dye Reduction Assay: Cell dilutions for a standard curve were prepared from a 72 hour log-phase culture. Serial dilutions were seeded in triplicate in 96 well plates and incubated at 37° for 1 hour. MTT (3-(4,5-dimethylthiazol-2-yl)-2,5-diphenyltetrazolium bromide) was dissolved in phosphate buffered saline at 5 mg/ml and sonicated for 30 seconds. Using the Perkin Elmer Pro/pette, 200 μl of medium was removed and 100 μl of MTT added to the wells of the standard curve and test plates. Suspension cultures were spun for 5 minutes at 1000 rpm before removing medium from the wells. Plates were incubated for 1 hour at 37° on a platform shaker. Following this incubation, 100 μl of medium was removed from the wells and 100 μl of DMSO added to each well. The plates were sonicated for approximately 10 seconds to solubilize the precipitated formazan dye. The absorbance of each well was measured using a Titertek Multiskan MC microtiter plate reader at 570 nm with a reference wavelength of 750 nm.

[3] = Stability on extended exposure to light; format: physicochemical; conditions: white powder
mouse L cells [4] = test system: mouse L cells

NC(=O)c1ncn([C@@H]2O[C@H](COP(=O)(O)O)[C@@H](O)[C@H]2O)c1N [AICAR, 5-aminoimidazole-4-carboxamide ribonucleotide]
reversal of the cytotoxicity of the compound of Example 3 (mouse L cells [1]): able to reverse the cytotoxicity of the compound of Example 3

Nc1nc(N)c(CCCNc2ccc(C(=O)N[C@@H](CCC(=O)O)C(=O)O)cc2)c(=O)[nH]1 [Example 1, N-[4-[3-(2,4-diamino-1,6-dihydro-6-oxo-5-pyrimidinyl)propylamino]benzoyl]-L-glutamic acid]
activity against Spiroplasma citri (Spiroplasma citri): activity against the mycoplasma, Spiroplasma citri | activity against Streptococcus faecium (Streptococcus faecium): possess activity against certain bacterial organisms | activity against Lactobacillus casei (Lactobacillus casei): possess activity against certain bacterial organisms | activity against yellow fever virus (yellow fever virus): some activity against yellow fever virus | inhibiting the growth of MCF-7 cells [2]: active in inhibiting the growth of MCF-7 cells

CN(CCCc1c(N)nc(N)[nH]c1=O)c1ccc(C(=O)N[C@@H](CCC(=O)O)C(=O)O)cc1 [Example 2, N-[4-[3-(2,4-diamino-1,6-dihydro-6-oxo-5-pyrimidinyl)-N-methylpropylamino]benzoyl]-L-glutamic acid]
activity against Spiroplasma citri (Spiroplasma citri): activity against the mycoplasma, Spiroplasma citri | inhibiting the growth of MCF-7 cells [2]: active in inhibiting the growth of MCF-7 cells

Nc1nc(N)c(CCCN(C=O)c2ccc(C(=O)N[C@@H](CCC(=O)O)C(=O)O)cc2)c(=O)[nH]1 [Example 3, N-[4-[3-(2,4-Diamino-1,6-dihydro-6-oxo-5-pyrimidinyl)-N-formylpropylamino]benzoyl]-L-glutamic acid]
activity against Spiroplasma citri (Spiroplasma citri): activity against the mycoplasma, Spiroplasma citri | activity against yellow fever virus (yellow fever virus): some activity against yellow fever virus | inhibiting the growth of MCF-7 cells [2]: active in inhibiting the growth of MCF-7 cells

CN(CCc1c(N)nc(N)[nH]c1=O)c1ccc(C(=O)N[C@@H](CCC(=O)O)C(=O)O)cc1 [Example 5, N-[4-[2-(2,4-diamino-1,6-dihydro-6-oxo-5-pyrimidinyl)ethyl-N-methylamino]benzoyl]-L-glutamic acid]
appearance upon extended exposure to light [3]: became tan upon extended exposure to light

Nc1nc2c(c(=O)[nH]1)N(C=O)C(CNc1ccc(C(=O)N[C@@H](CCC(=O)O)C(=O)O)cc1)CN2 (stereo partly shown) [calcium leucovorin]
reversal of the cytotoxicity of the compound of Example 1 (mouse L cells [4]): able to reverse the cytotoxicity of the compound of Example 1 | reversal of the cytotoxicity of the compound of Example 3 (mouse L cells [4]): able to reverse the cytotoxicity of the compound of Example 3

O=c1[nH]cnc2nc[nH]c12 [hypoxanthine]
reversal of the cytotoxicity of the compound of Example 1 (mouse L cells [4]): able to reverse the cytotoxicity of the compound of Example 1 | reversal of the cytotoxicity of the compound of Example 3 (mouse L cells [4]): able to reverse the cytotoxicity of the compound of Example 3
